# Read-outs that look alike come from different tables or passages of the source.
# How the values were obtained:
# [1] = test system: SW480 human colon adenocarcinoma; experiment: Tumor cell culture cytotoxicity (MTT dye reduction), SW480; settings: Homo sapiens
# Description: (§1) SW480 and WiDr colon adenocarcinomas, MCF-7 breast adenocarcinoma, A427 lung carcinoma and MOLT-4 T-cell leukemia were used for the primary screening of compounds. […] MCF-7, A427 and SW480 were grown in the above medium further supplemented with sodium pyruvate.
# (§2) Cells are seeded into 96-well plates using a Perkin-Elmer Pro/pette. SW480 and A427 were seeded at 8,000 cells per well, MCF-7 at 10,000, Widr at 7500, and MOLT-4 at 12,500 cells per well, all in 150 µl of medium. Prior to the addition of drugs, cultures were incubated for 24 hrs at 37°. Compounds were added at 2×concentration in 150 l of medium and each concentration was assayed in triplicate. If DMSO or ethanol were used to solubilize compounds, appropriate controls were run if the concentration exceeded 0.01%. Cultures were incubated for 72 hours (96 hours for SW480 and MCF-7) in a 37° humidified incubator at 5% CO2. Inhibition of cell growth was measured using the MTT dye reduction assay.
# (§3) Cell dilutions for a standard curve were prepared from a 72 hour log-phase culture. Serial dilutions were seeded in triplicate in 96-well plates and incubated at 37 degrees for one hour. MTT (3-(4,5-dimethylthiazol-2-yl)-2,5-diphenyltetrazolium bromide) was dissolved in PBS at 5 mg/ml and sonicated for 30 seconds. Using the Perkin Elmer Pro/pette, 200 μl of medium was removed and 100 μl of MTT added to the wells of the standard curve and test plates. Suspension cultures were spun for 5 min at 1000 rpm before removing medium from the wells. Plates were incubated for 1 hour at 370 on a platform shaker. Following this incubation 100 ml of medium was removed from the wells and 100 μl of DMSO added to each well. The plates were sonicated for approximately 10 seconds to solubilize the precipitated formazan dye. The absorbance of each well was measured using a Titertek Multiscan MC microtiter plate reader at 570 nm with a reference wavelength of 750 nm. Data was collected using a Mariachi Seed-2 and stored and analyzed using an IBM-AT and Lotus 1-2-3 software.
# [2] = Cell culture cytotoxicity, L cells; assay type: cell-based; settings: mouse, L fibroblast cell line, read-out: Tumor Cell Culture Cytotoxicity IC50 Other (L)
# Description: as §2, §3
# [3] = Cell culture cytotoxicity, D98; assay type: cell-based; settings: human, D98 bone marrow cell line, read-out: Tumor Cell Culture Cytotoxicity IC50 Other (D98)
# Description: as §2, §3
# [4] = test system: MCF-7 human breast adenocarcinoma; experiment: Tumor cell culture cytotoxicity (MTT dye reduction), MCF-7; assay type: cell-based
# Description: as §1, §2, §3
# [5] = target: T1, Mammalian Thymidylate Synthase (Homo sapiens, UniProt P04818); experiment: Thymidylate synthase inhibition, tritium release assay; assay type: biochemical
# T1 construct: made in house; host or cells: Escherichia coli
# [6] = SW480, read-out: Tumor Cell Culture Cytotoxicity IC50 SW480, Table D, 5,6-dihydro 3-methyl derivatives
# [7] = Table D, 5,6-dihydro 3-methyl derivatives
# [8] = SW480, read-out: Cell Culture Cytotoxicity CCCT SW-480, Table F, fully aromatic p-aminobenzoylglutamates
# [9] = MCF7, Table F, fully aromatic p-aminobenzoylglutamates, read-out: Cell Culture Cytotoxicity CCCT MCF-7
# [10] = SW480, read-out: Tumor Cell Culture Cytotoxicity IC50 SW480, Table B, fully aromatic 3-amino derivatives
# [11] = Table B, fully aromatic 3-amino derivatives
# [12] = SW480, read-out: Tumor Cell Culture Cytotoxicity IC50 SW480, Table E, fully aromatic 3-methyl derivatives
# [13] = Table E, fully aromatic 3-methyl derivatives
# T1 sequence (P04818 whole entry): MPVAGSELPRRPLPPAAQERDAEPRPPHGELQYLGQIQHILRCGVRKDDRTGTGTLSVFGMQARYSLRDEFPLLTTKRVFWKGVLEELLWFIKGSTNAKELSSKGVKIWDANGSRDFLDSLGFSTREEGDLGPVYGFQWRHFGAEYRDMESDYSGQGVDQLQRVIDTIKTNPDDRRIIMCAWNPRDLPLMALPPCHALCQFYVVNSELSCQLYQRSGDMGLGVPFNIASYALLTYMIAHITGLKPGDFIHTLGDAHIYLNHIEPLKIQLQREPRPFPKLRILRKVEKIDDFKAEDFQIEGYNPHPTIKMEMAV
structure (smiles),measurement,setting,value
"Cc1nc2c(c(=O)[nH]1)-c1ccc([N+](=O)[O-])cc1CC2 [Example 8-NO2, 5,6-dihydro-3-methyl-8-nitrobenzo[f]quinazolin-1(2H)-one]",IC50,[1]; [6],100 µM
same,IC50 at 72 h,[2]; [7],52 µM
same,IC50 at 72 h,[3]; [7],52 µM
"Cc1nc2ccc3ccc(COc4ccc(C(=O)N[C@@H](CCC(=O)O)C(=O)O)cc4)cc3c2c(=O)[nH]1 [N-(4-((1,2-Dihydro-3-methyl-1-oxobenzo(f)quinazolin-9-yl)methoxy)benzoyl)-L-glutamic acid]",IC50,[1]; [8],70 µM
same,IC50,[4]; [9],7 µM
Nc1nc2ccc3c(Cl)cccc3c2c(=O)[nH]1 [3-Amino-7-chlorobenzo(f)quinazolin-1(2H)-one],IC50,[1]; [10],25 µM
same,IC50,[5],1 to 300 µM
same,IC50 at 72 h,[2]; [11],46 µM
same,IC50 at 72 h,[3]; [11],60 µM
"Cc1nc2ccc3c(S(=O)(=O)Nc4ccc(C(=O)N[C@@H](CCC(=O)O)C(=O)O)cc4)cccc3c2c(=O)[nH]1 [N-(4-((1,2,-Dihydro-3-methyl-1-oxobenzo(f)quinazolin-7-yl)sulfonamido)benzoyl)-L-glutamic acid]",IC50,[4]; [9],50 µM
COCc1cc2nc(N)nc(O)c2c2ccccc12 [3-Amino-6-(methoxymethyl)benzo(f)quinazolin-1(2H)-one],IC50,[1]; [10],60 µM
same,IC50,[5],1 to 300 µM
same,IC50 at 72 h,[2]; [11],56 µM
same,IC50 at 72 h,[3]; [11],74 µM
Nc1nc2ccc3c([N+](=O)[O-])c(F)ccc3c2c(=O)[nH]1 [3-Amino-8-fluoro-7-nitrobenzo(f)quinazolin-1(2H)-one],IC50,[1]; [10],30 µM
same,IC50,[5],1 to 300 µM
same,IC50 at 72 h,[2]; [11],14 µM
same,IC50 at 72 h,[3]; [11],20 µM
"Cc1nc2c(c(=O)[nH]1)-c1cc(S(=O)(=O)Nc3ccc([N+](=O)[O-])cc3)ccc1CC2 [1,2,5,6-Tetrahydro-3-methyl-4′-nitro-1-oxobenzo(f)quinazoline-9-sulfonanilide]",IC50,[1]; [6],30 µM
same,melting point,,> 240 °C
Cc1nc2ccc3ccc(CNc4ccc5c(c4)CCC5=O)cc3c2c(=O)[nH]1 [3-Methyl-9-(((1-oxo-5-indanyl)amino)methyl)benzo)[f]quinazolin-1(2H)-one],IC50,[1]; [12],0.015 µM
same,IC50 at 72 h,[2]; [13],0.058 µM
same,IC50 at 72 h,[3]; [13],0.25 µM
"Cc1nc2c(c(=O)[nH]1)-c1cc(S(=O)(=O)Nc3ccc(C(N)=O)cc3)ccc1CC2 [4-((1,2,5,6-Tetrahydro-3-methyl-1-oxobenzo(f)quinazolin-9-yl)sulfonamido)benzamide]",IC50,[1]; [6],80 µM
same,melting point,,190 °C
"CC(=O)c1ccc(NCc2ccc3ccc4nc(C)[nH]c(=O)c4c3c2)cc1 [Example 35, 9-((4-Acetylanilino)methyl)-3-methylbenzo[f]quinazolin-1(2H)-one]",melting point,,> 235 °C
"CCN(CC)S(=O)(=O)c1ccc2ccc3nc(N)[nH]c(=O)c3c2c1 [Example 9-SO2NEt2, 3-Amino-N,N-diethyl-1,2-dihydro-1-oxobenzo[f]quinazoline-9-sulfonamide]",IC50,[1]; [10],15 µM
same,IC50,"[1]; SW480, read-out: Tumor Cell Culture Cytotoxicity IC50 SW480, Table C, 5,6-dihydro 3-amino derivatives",30 µM
same,melting point,,> 250 °C
"Nc1ccc2c(ccc3nc(N)nc(O)c32)c1 [3,8-Diaminobenzo(f)quinazolin-1(2H)-one]",IC50,[1]; [10],100 µM
same,IC50,[5],1 to 300 µM
same,IC50 at 72 h,[2]; [11],40 µM
same,IC50 at 72 h,[3]; [11],53 µM
"Cc1nc2ccc3ccc(CN(C)c4ccc(C(=O)N[C@@H](CCC(=O)O)C(=O)O)cc4)cc3c2c(=O)[nH]1 [N-(4-((1,2-Dihydro-3-methyl-1-oxobenzo(f)quinazolin-9-yl)methyl)methylamino)benzoyl)-L-glutamic acid]",IC50,[1]; [8],1.5 µM
same,IC50,[4]; [9],0.018 µM
"Cc1nc2ccc3ccc(CNc4ccc(C(=O)CCC(=O)O)cc4)cc3c2c(=O)[nH]1 [4-(4-(((1,2-Dihydro-3-methyl-1-oxobenzo[f]quinazolin-9-yl)methyl)amino)phenyl)-4-oxobutyric acid]",IC50,[1]; [12],0.7 µM
same,IC50 at 72 h,[2]; [13],8.8 µM
same,IC50 at 72 h,[3]; [13],13.5 µM
"Cc1nc2ccc3ccc(CNc4ccc(C(=O)N[C@@H](CCC(=O)O)C(=O)O)c(F)c4)cc3c2c(=O)[nH]1 [N-(4-(((1,2-Dihydro-3-methyl-1-oxobenzo(f)quinazolin-9-yl)methyl)amino)-2-fluorobenzoyl)-L-glutamic acid]",IC50,[1]; [8],0.02 µM
same,IC50,[4]; [9],0.0007 µM
"Nc1nc2ccc3cc(S(=O)(=O)Nc4ccc(C(=O)N[C@@H](CCC(=O)O)C(=O)O)cc4)c(Br)cc3c2c(=O)[nH]1 [N-(4-((3-Amino-9-bromo-1,2-dihydro-1-oxobenzo(f)quinazolin-8-yl)sulfonamido)benzoyl)-L-glutamic acid]",IC50,[1]; [8],> 50 µM
same,melting point,,238 to 242 °C
same,IC50,[4]; [9],> 50 µM
"Cc1nc2ccc3ccc(CNc4ccc(C(=O)N[C@@H](CCC(=O)O)C(=O)O)cc4)cc3c2c(=O)[nH]1 [N-(4-(((1,2-Dihydro-3-methyl-1-oxobenzo(f)quinazolin-9-yl)methyl)amino)benzoyl)-L-glutamic acid]",IC50,[1]; [8],0.35 µM
same,IC50,[4]; [9],0.0075 µM
"Nc1nc2ccc3ccc(CNc4ccc(C(=O)N[C@@H](CCC(=O)O)C(=O)O)cc4)cc3c2c(=O)[nH]1 [N-(4-(((3-Amino-1,2-dihydro-1-oxobenzo(f)quinazolin-9-yl)methyl)amino)benzoyl)-L-glutamic acid]",IC50,[1]; [8],0.6 µM
same,IC50,[4]; [9],0.025 µM
Nc1nc2ccc3c(Br)cccc3c2c(=O)[nH]1 [3-Amino-7-bromobenzo(f)quinazolin-1(2H)-one],IC50,[1]; [10],10 µM
same,IC50,[5],1 to 300 µM
same,IC50 at 72 h,[2]; [11],28 µM
same,IC50 at 72 h,[3]; [11],56 µM
"CC(=O)c1ccc(NS(=O)(=O)c2ccc3c(c2)-c2c(nc(C)[nH]c2=O)CC3)cc1 [4′-Acetyl-1,2,5,6-tetrahydro-3-methyl-1-oxobenzo(f)quinazoline-9-sulfonanilide]",IC50,[1]; [6],8 µM
same,melting point,,> 240 °C
"Cc1nc2c(c(=O)[nH]1)-c1cc(S(N)(=O)=O)ccc1CC2 [1,2,5,6-Tetrahydro-3-methyl-1-oxobenzo(f)quinazoline-9-sulfonamide]",melting point,,> 240 °C
same,IC50,[5],1 to 300 µM
"CCCCCCCCCCCCOC(=O)CCC(=O)c1ccc(NCc2ccc3ccc4nc(C)[nH]c(=O)c4c3c2)cc1 [Dodecyl 4-(4-(((1,2-dihydro-3-methyl-1-oxobenzo[f]quinazolin-9-yl)methyl)amino)phenyl)-4-oxobutyrate]",IC50,[1]; [12],0.4 µM
same,melting point,,213 to 214 °C
"Cc1nc2ccc3ccc(CNc4ccc5c(c4)CN([C@@H](CCC(=O)O)C(=O)O)C5=O)cc3c2c(=O)[nH]1 [(S)-2-(5-(((1,2-Dihydro-3-methyl-1-oxobenzo(f)quinazolin-9-yl)methyl)amino)-1-oxo-2-isoindolinyl)glutaric acid]",IC50,[1]; [8],0.0008 µM
same,IC50,[4]; [9],0.0002 µM
"CCN(CC)S(=O)(=O)c1ccc2c(c1)-c1c(nc(C)[nH]c1=O)CC2 [N,N-Diethyl-1,2,5,6-tetrahydro-3-methyl-1-oxobenzo(f)quinazoline-9-sulfonamide]",melting point,,249 to 251 °C
same,IC50,[5],1 to 300 µM
Cc1cccc2c1ccc1nc(N)[nH]c(=O)c12 [3-Amino-7-methylbenzo(f)quinazolin-1(2H)-one],IC50,[1]; [10],35 µM
same,IC50,[5],1 to 300 µM
same,IC50 at 72 h,[2]; [11],32 µM
same,IC50 at 72 h,[3]; [11],53 µM
CC(=O)c1ccc(NCc2ccc3ccc4nc(N)[nH]c(=O)c4c3c2)cc1 [3-Amino-9-((4-acetylanilino)methyl)benzo(f)quinazolin-1(2H)-one],IC50,[1]; [10],0.045 µM
same,IC50,"[4]; MCF7, Table B, fully aromatic 3-amino derivatives, read-out: Tumor Cell Culture Cytotoxicity IC50 Other (MCF-7)",0.03 µM
same,IC50,[5],< 1 µM
"Nc1nc2c(c(=O)[nH]1)-c1cc(S(=O)(=O)Nc3ccc(C(=O)N[C@@H](CCC(=O)O)C(=O)O)cc3)ccc1CC2 [N-(4-((3-Amino-1,2,5,6-tetrahydro-1-oxobenzo(f)quinazolin-9-yl)-sulfonamido)benzoyl)-L-glutamic acid]",IC50,"[1]; SW480, read-out: Cell Culture Cytotoxicity CCCT SW-480, Table G, dihydrobenzoquinazoline p-aminobenzoylglutamates",7.9 µM
same,IC50,"[4]; MCF7, Table G, dihydrobenzoquinazoline p-aminobenzoylglutamates, read-out: Cell Culture Cytotoxicity CCCT MCF-7",0.65 µM
"Nc1nc2ccc3ccc(CNc4ccc(F)cc4)cc3c2c(=O)[nH]1 [Example 38, 3-Amino-9-((4-fluoroanilino)methyl)benzo[f]quinazolin-1(2H)-one]",melting point,,> 230 °C

# — patent US6762188B1, “Pharmaceutically active benzoquinazoline compounds” (SmithKline Beecham Corporation, priority 1990, dated 2004)
